The results in this text go back to patent publication US4698356A, “Anti-hypertensive agents” (University of Miami, priority 1979, dated 1987).

For this experiment, the target named is T1, human urinary ACE (angiotensin converting enzyme) (Homo sapiens, UniProt P12821).
T1 construct: The enzyme preparation was ACE purified from human urine; from tissue; host or cells: human urine (enzyme purified as described by Ryan, J.W., et al., Tissue and Cell 10, 555 (1978))
Briefly: ACE activity assay (inhibition of hydrolysis of [3H]-Benzoyl-GlyHisLeu). The format is biochemical. Particulars: read-out: I50. On the procedure:
These factors include the source of enzyme, its purity, the substrate used and its concentration, and the composition of the assay buffer.
ACE activity assay. […] To initiate the assay, 40 μl of enzyme and 10 μl of water or inhibitor dissolved in water were preincubated for five minutes at 37° C. […] To terminate the reaction, 1 ml of 0.1M HCl was added, following which 1 ml of ethyl acetate was added. The mixture was agitated on a rotary mixer and centrifuged briefly to separate the phases.
An aliquot, 500 μl, of the ethyl acetate layer was transferred to a liquid scintillation vial containing 10 ml of Riafluor, trademark New England Nuclear Corporation, Boston, Mass. For determination of I50 values, enzyme activity in the presence of inhibitor at a series of different concentrations was compared to activity in the absence of inhibitor.

T1 sequence (P12821 30-1232 limits assumed): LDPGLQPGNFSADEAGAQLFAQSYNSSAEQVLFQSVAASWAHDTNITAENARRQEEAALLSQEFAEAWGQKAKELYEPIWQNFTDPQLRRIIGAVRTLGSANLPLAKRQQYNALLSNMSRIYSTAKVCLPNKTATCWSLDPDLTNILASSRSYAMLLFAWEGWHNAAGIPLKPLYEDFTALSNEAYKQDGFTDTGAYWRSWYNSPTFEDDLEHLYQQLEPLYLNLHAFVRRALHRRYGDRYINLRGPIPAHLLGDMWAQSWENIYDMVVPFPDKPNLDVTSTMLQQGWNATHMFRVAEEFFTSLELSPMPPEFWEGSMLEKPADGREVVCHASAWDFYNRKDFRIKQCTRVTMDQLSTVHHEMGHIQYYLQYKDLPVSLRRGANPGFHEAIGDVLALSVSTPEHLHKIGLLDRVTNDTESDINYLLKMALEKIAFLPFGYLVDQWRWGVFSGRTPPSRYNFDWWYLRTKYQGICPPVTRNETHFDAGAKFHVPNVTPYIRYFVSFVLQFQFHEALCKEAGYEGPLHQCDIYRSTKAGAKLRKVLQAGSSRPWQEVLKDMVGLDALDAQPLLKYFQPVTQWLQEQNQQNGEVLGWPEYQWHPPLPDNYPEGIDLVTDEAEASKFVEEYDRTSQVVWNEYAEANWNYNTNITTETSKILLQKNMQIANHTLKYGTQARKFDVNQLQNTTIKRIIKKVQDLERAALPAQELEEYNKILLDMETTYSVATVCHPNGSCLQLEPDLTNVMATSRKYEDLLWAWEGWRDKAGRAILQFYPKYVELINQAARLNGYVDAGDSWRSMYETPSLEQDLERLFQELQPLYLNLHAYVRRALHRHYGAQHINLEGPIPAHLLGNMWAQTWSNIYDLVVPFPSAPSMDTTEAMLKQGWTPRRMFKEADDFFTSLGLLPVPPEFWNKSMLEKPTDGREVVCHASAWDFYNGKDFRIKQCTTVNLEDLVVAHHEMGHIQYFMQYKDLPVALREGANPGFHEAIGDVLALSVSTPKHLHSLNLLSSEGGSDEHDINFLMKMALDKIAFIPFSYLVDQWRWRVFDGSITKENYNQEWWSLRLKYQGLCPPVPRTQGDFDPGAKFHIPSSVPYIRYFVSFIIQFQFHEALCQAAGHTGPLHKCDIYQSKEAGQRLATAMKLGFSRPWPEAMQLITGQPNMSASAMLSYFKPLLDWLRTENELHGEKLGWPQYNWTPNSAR

For `C[C@H](CSC(=O)[C@@H](N)Cc1ccccc1)C(=O)N1CCC[C@H]1C(=O)O` [Example 14, N^α -(3-L-phenylalanylthio-2-D-methylpropanoyl)-L-proline], the IC50 is 8.8 nM.
